Common to all, as to format: functional
For one assay, the system named is HOP-92. The assay is described as follows: Cytotoxicity against human HOP92 cells assessed as cell growth at 10 uM after 48 hrs by SRB assay relative to control. The conditions noted are these: HOP-92, 48 h, read-out: Activity.
For another assay, the system named is SR. Kind of assay: Cytotoxicity against human SR cells after 48 hrs by SRB assay.
The next assay has as its system HL-60. Kind of assay: Cytotoxicity against human HL60 cells after 48 hrs by SRB assay. The conditions noted are these: HL-60, 48 h.
A further assay deals with K562. The assay is described as follows: Cytotoxicity against human K562 cells after 48 hrs by SRB assay. The settings on record: K562, 48 h.
Another assay has as its system RPMI-8226. Kind of assay: Cytotoxicity against human RPMI8226 cells after 48 hrs by SRB assay. The settings on record: RPMI-8226, 48 h.
The next assay relates to U-251. The assay is described as follows: Cytotoxicity in human U251 cells after 48 hrs by SRB assay. The conditions noted are these: U-251, 48 h.
The subject of the next assay is LOX IMVI. Kind of assay: Cytotoxicity in human LOXIMVI cells after 48 hrs by SRB assay.
Another assay concerns UACC-62. Kind of assay: Cytotoxicity against human UACC62 cells after 48 hrs by SRB assay. The conditions noted are these: UACC-62, 48 h.
The next assay concerns OVCAR-4. The assay is described as follows: Cytotoxicity against human OVCAR4 cells after 48 hrs by SRB assay. The settings on record: OVCAR-4, 48 h.
A further assay deals with RXF 393. The assay is described as follows: Cytotoxicity against human RXF393 cells after 48 hrs by SRB assay. The settings on record: RXF 393, 48 h.
The next assay deals with PC-3. Kind of assay: Cytotoxicity against human PC3 cells after 48 hrs by SRB assay. The conditions noted are these: PC-3, 48 h.
The subject of a further assay is MCF7. The assay is described as follows: Cytotoxicity against human MCF7 cells after 48 hrs by SRB assay. The conditions noted are these: MCF7, 48 h.
Another assay has as its system MDA-MB-231. Kind of assay: Cytotoxicity against human MDA-MB-231 cells after 48 hrs by SRB assay. The settings on record: MDA-MB-231, 48 h.
In the next assay the test system is T47D. Kind of assay: Cytotoxicity against human T47D cells after 48 hrs by SRB assay.
The next assay concerns SF-295. Kind of assay: Cytotoxicity against human SF295 cells after 48 hrs by SRB assay. The settings on record: SF-295, 48 h.
Another assay deals with UACC-257. Kind of assay: Cytotoxicity against human UACC257 cells after 48 hrs by SRB assay. The settings on record: UACC-257, 48 h.
Setting [1] is: read-out: LC50 (the source's name).

As to `Cn1cc(-c2[nH]c(=S)[nH]c(=O)c2-c2cn(C)c3ccccc23)c2ccccc21`, in the assay with HOP-92, the growth at 10 µM was 69.8%.

In the case of `Cn1c2ccccc2c2c3nc(N)[nH]c(=O)c3c3c4ccccc4n(C)c3c21`, the GI50 in the assay on SR was 4.61 µM; in the assay on HL-60, 4.19 µM; with K562, 3.93 µM; in the assay with RPMI-8226, 11.1 µM; in the assay with U-251, 6.38 µM; with LOX IMVI, 4.7 µM. Besides, the GI50 with UACC-62 turned out to be 16.1 µM; in the assay on OVCAR-4, 16.8 µM; in the assay with RXF 393, 7.47 µM; with PC-3 it was 5.54 µM; in the assay with MCF7, 2.13 µM; in the assay with MDA-MB-231, 93 µM. Further, the GI50 with T47D was determined as 5.1 µM; in the assay with SF-295, 3.68 µM; in the assay on UACC-257, 12.8 µM. For the same compound, the TGI in the assay with SR is 41.8 µM; in the assay with HL-60, 38 µM; with K562, 40.3 µM; in the assay on RPMI-8226 it was 65.6 µM; in the assay on U-251, more than 100 µM; in the assay with LOX IMVI it was 31.1 µM. In addition, the TGI is more than 100 µM in the assay with UACC-62; more than 100 µM in the assay on OVCAR-4; 37.6 µM in the assay on RXF 393; more than 100 µM with PC-3; 44.1 µM in the assay on MCF7; more than 100 µM with MDA-MB-231. The TGI in the assay on T47D is more than 100 µM; in the assay on SF-295, 12.9 µM; in the assay on UACC-257, 32 µM. The CC50 in the assay on SR (setting [1]), with HL-60 (setting [1]), in the assay on K562 (setting [1]), with RPMI-8226 (setting [1]), in the assay with U-251 (setting [1]) and in the assay on LOX IMVI (setting [1]) was more than 100 µM throughout. Besides, the CC50 in the assay with UACC-62 (setting [1]), with OVCAR-4 (setting [1]), in the assay on RXF 393 (setting [1]), with PC-3 (setting [1]), in the assay with MCF7 (setting [1]) and in the assay on MDA-MB-231 (setting [1]) was more than 100 µM throughout. Also, the CC50 is more than 100 µM in the assay on T47D (setting [1]), 76.7 µM with SF-295 (setting [1]) and 79.7 µM in the assay on UACC-257 (setting [1]).

The record behind these values is ChEMBL document CHEMBL2086254, “Synthesis and identification of novel indolo[2,3-a]pyrimido[5,4-c]carbazoles as a new class of anti-cancer agents” (Eur J Med Chem, 2012).
